Source: patent publication US20080234273A1, “Heteroaryl Benzamide Derivatives for Use as Glk Activators in the Treatment of Diabetes” (priority 2005, published 2008)

Target: T1, recombinant human pancreatic GLK (Homo sapiens, UniProt P35557)
T1 sequence (P35557 1-465): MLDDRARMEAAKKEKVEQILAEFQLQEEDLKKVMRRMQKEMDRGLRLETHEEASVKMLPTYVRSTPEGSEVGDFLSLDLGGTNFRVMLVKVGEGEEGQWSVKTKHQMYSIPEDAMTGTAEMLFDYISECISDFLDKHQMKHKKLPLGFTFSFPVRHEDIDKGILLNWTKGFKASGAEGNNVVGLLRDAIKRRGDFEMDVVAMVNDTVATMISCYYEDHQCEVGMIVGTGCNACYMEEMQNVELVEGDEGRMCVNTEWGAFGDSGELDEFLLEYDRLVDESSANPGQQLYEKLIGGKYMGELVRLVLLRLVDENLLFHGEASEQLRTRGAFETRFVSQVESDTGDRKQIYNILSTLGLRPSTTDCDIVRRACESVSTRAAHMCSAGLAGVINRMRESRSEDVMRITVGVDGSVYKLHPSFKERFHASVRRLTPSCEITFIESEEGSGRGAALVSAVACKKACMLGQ
Assay: biochemical

C[C@@H](COC(F)F)Oc1cc(Oc2ccc(C(=O)N3CCC3)cc2Cl)cc(C(=O)Nc2ccn(C)n2)c1 [Example 1, 3-{[4-(Azetidin-1-ylcarbonyl)-2-chlorophenyl]oxy}-5-({(1S)-2-[(difluoromethyl)oxy]-1-methylethyvl}oxy)-N-(1-methyl-1H-pyrazol-3-yl)benzamide]
EC50: 40 nM
